The values that follow are results of earlier work, collected in patent US11826376B2, “Methods of treating heart failure with preserved ejection fraction employing dapagliflozin and compositions comprising the same” (AstraZeneca AB, priority 2018, dated 2023).

One series concerns the target human renal SGLT2 (Homo sapiens, UniProt P31639). To be noted: background statement, no data.

Chain of human renal SGLT2 (P31639 whole entry): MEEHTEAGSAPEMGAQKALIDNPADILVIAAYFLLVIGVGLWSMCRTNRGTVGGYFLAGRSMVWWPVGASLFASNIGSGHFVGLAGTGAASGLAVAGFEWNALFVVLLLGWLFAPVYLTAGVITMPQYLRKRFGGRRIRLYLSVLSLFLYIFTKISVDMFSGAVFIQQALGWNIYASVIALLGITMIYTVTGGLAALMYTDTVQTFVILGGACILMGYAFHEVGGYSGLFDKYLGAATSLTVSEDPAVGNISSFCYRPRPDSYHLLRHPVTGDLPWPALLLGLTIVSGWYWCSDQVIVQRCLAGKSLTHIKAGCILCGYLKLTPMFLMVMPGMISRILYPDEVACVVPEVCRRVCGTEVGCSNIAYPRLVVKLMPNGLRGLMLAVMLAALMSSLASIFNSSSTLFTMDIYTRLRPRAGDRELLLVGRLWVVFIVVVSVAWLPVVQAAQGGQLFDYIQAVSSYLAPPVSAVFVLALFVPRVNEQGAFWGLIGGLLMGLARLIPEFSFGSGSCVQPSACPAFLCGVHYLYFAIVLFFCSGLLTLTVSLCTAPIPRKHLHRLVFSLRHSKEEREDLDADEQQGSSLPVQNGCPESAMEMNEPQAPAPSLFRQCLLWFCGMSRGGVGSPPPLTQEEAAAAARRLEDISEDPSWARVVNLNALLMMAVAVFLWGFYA

As to `CCOc1ccc(Cc2cc([C@@H]3O[C@H](CO)[C@@H](O)[C@H](O)[C@H]3O)ccc2Cl)cc1` [Dapagliflozin, dapagliflozin], under “Shigiyama et al. 2017”, the albuminuria entry is given as “reduce”, the arterial stiffness entry was “reduces”, the blood uric acid entry is given as “reduce” and the systolic blood pressure result is listed as “reduce”. Under “Shigiyama et al. 2017”, the weight result is “reduce”. For the setting “background statement”, the HbA1c entry is recorded as “effectively lowers” and the “risk of inducing hypoglycaemia” value is on record as “low risk”. Besides, the “inhibitor of human renal SGLT2” value on human renal SGLT2 is on record as “potent, highly selective”.
